Consider five molecules from ChEMBL document CHEMBL1148643, “Fancy bioisosteres: novel paracyclophane derivatives as super-affinity dopamine D3 receptor antagonists” (J Med Chem, 2006).

The target in test [1] is T1, D(2) dopamine receptor (Homo sapiens, UniProt P14416). Kind of test: biochemical.
Description: Displacement of [3H]spiperone from human D2 long receptor expressed in CHO cells
The next test concerns the target T2, D(4) dopamine receptor (Homo sapiens, UniProt P21917).
T2 sequence (P21917 whole entry): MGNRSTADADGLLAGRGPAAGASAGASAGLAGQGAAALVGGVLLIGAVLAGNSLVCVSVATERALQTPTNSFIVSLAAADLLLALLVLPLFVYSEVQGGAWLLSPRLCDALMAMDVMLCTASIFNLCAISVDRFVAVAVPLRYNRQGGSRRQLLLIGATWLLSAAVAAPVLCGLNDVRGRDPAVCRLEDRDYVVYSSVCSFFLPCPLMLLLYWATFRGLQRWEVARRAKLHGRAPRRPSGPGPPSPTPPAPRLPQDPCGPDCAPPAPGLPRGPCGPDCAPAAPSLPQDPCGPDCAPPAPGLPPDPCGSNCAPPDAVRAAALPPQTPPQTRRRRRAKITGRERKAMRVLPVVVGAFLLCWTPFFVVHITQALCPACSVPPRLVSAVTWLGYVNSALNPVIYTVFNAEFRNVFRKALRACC
Put plainly: Displacement of [3H]spiperone from human D4 receptor expressed in CHO cells. Type of test: cell-based. (Loss of bound radioactivity is the signal in a displacement assay; it reports binding, not function.)

The next test deals with D(3) dopamine receptor (Homo sapiens, UniProt P35462). Kind of test: biochemical.
Chain of D(3) dopamine receptor (P35462 whole entry): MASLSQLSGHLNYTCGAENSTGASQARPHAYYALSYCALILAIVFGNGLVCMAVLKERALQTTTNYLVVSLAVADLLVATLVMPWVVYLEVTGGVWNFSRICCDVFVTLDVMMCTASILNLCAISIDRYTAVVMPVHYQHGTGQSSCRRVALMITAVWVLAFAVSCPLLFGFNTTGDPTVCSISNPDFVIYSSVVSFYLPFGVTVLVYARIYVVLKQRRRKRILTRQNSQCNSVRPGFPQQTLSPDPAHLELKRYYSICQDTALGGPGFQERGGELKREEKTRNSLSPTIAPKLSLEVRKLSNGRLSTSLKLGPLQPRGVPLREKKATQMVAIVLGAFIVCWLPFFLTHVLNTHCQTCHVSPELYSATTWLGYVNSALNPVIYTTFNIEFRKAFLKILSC
Test [2] concerns the target T1, D(2) dopamine receptor. Kind of test: biochemical. The source holds these as a separate data set.
Description: Displacement of [3H]spiperone from human D2 short receptor expressed in CHO cells

The structures appear in SMILES notation. “And” between values parts separate entries of the source, which are not always exact repeats. Equal entries are not always repeated.

The term Ki denotes a dissociation constant, usually derived from enzyme kinetics or from competition with a known ligand. Lower therefore signals higher affinity.

T1 sequence (P14416 whole entry): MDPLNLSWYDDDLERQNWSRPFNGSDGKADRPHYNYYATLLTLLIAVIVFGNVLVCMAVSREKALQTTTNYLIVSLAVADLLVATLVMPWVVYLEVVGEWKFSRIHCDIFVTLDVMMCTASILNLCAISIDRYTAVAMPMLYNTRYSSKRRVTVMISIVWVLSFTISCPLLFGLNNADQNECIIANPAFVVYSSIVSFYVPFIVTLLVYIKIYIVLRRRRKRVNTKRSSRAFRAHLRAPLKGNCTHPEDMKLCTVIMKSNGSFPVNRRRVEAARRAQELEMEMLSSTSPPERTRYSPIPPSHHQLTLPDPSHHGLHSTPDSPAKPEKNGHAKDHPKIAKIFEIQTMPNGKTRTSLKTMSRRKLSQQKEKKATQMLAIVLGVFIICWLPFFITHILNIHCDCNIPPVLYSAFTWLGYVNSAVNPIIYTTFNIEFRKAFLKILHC
Description for D(3) dopamine receptor: Displacement of [3H]spiperone from human D3 receptor expressed in CHO cells

As for `COc1ccccc1N1CCN(CCCCNC(=O)c2cc3c4ccc(c3o2)CCc2ccc(cc2)CC4)CC1`, the Ki was determined as 170 nM at D(2) dopamine receptor [1], 140 nM on D(4) dopamine receptor and 16 nM on D(3) dopamine receptor.
Consider `COc1c(Cl)cccc1N1CCN(CCCCNC(=O)c2cc3ccc2CCc2ccc(cc2)CC3)CC1`, for which the Ki was found to be 42 nM at D(2) dopamine receptor [1], 28 nM at D(2) dopamine receptor [2], 33 nM at D(4) dopamine receptor and 0.46 nM at D(3) dopamine receptor.
For the molecule `O=C(NCCCCN1CCN(c2cccc(F)c2F)CC1)c1cc2ccc1CCc1ccc(cc1)CC2`, the Ki at D(2) dopamine receptor [2] is 35 nM; on D(4) dopamine receptor, 18 nM; at D(3) dopamine receptor it was 1.9 nM.
Regarding `O=C(NCCCCN1CCN(c2cccc(Cl)c2Cl)CC1)c1cc2ccc1CCc1ccc(cc1)CC2`, the Ki on D(2) dopamine receptor [1] came out at 220 nM; at D(2) dopamine receptor [2], 140 nM; on D(4) dopamine receptor, 120 nM; at D(3) dopamine receptor it was 3.6 nM.
For the molecule `COc1ccccc1N1CCN(CCCCNC(=O)c2cc3ccc2CCc2ccc(cc2)CC3)CC1`, the Ki was 15 nM and 11 nM at D(2) dopamine receptor [1]; 13 nM and 5.6 nM on D(2) dopamine receptor [2]; 5.4 nM and 9.5 nM on D(4) dopamine receptor.
